Experimental data: PMC7211193, “Evaluation of absorption, distribution, metabolism, and excretion of [^14C]-rucaparib, a poly(ADP-ribose) polymerase inhibitor, in patients with advanced solid tumors” (Investigational New Drugs, 2019)

Experiments:
[1] = Metabolite profiling in pooled feces (LC-MS-Radiomatic); type: in vivo, human; details: for % Dose in feces: pooled fecal homogenate, % of administered dose
Description: For each patient, homogenized feces samples from different collection intervals were pooled in proportion to their sample weight in order to obtain a pooled sample covering 90% of the TRA recovered in feces. Aliquots of the pooled fecal samples were extracted at least twice with acetonitrile. The obtained supernatant was evaporated. The dried residues were reconstituted in 40% DMSO in water to obtain maximum recovery. An aliquot of the supernatant was analyzed for TRA to determine extraction efficiency, and the mean recovery was ≈75%. Aliquots of the supernatants were injected into the HPLC coupled to UV and radioactive detectors to obtain metabolite profiles. The sample supernatants were also analyzed using LC-MS to identify metabolites.
(§1) Metabolite profiling and identification were performed on an LC system (Agilent) coupled to an LTQ Orbitrap mass spectrometer (Thermo Electron, Waltham, MA, USA) in combination with offline TopCount (LC-MS-TopCount) or online Radiomatic 625TR (LC-MS-Radiomatic; PerkinElmer). Proposed structures of the metabolites were based on accurate mass (<5 ppm) and comparison of mass spectral data of parent compound rucaparib and metabolite standard M324. The Radiomatic 625TR flow detector, equipped with a 200 μL flow cell, was operated using scintillation cocktail (Ultima-Flo M) delivered at a flow rate of 1 mL/min. Chromatography was done using a Phenomenex (Torrance, CA, USA) Luna Phenyl-Hexyl column (250 × 2 mm, 5 μm, 100 Å) at ambient temperature during the sample analysis. The mobile phase was (A) 0.05% TFA in water and (B) 0.05% TFA in acetonitrile, with a 0.2 mL/min flow rate. The gradient was as follows: 5% B over 2.1 min, to 20% B in 1.0 min, to 35% B in 16.9 min, isocratic at 35% B for 5 min, to 95% B over 5 min, and reduced to 5% B over 1 min, with total run time 45 min.
The abundance of unchanged rucaparib and metabolites identified in plasma, urine, and feces was determined as a percentage of the TRA in the analyzed samples. Percentage of the administered dose of rucaparib and metabolites was calculated in urine and feces (formula A). The concentration of rucaparib and its metabolites in plasma (ng Eq h/mL) was calculated based on the specific activity, TRA, and percentage of peaks (formula B). The AUC0-24h value of rucaparib and its major metabolite M324 in plasma was calculated using both Hamilton method (formula C) and linear trapezoidal method (formula D). • (A) %Doseofmetabolite=TRAinurineorfeces(dpm)÷TRAinadministereddose(dpm)×%metabolitesinmatrix • (B) Metaboliteconcentrationsinplasma(ngEq/mL)=TRAinplasma(dpm/mL)specificactivity(ngEq/dpm)×%metabolitesinthematrix • (C) Hamiltonmethod:AUC0−24h(ngEqh/mL)=concentrationinHamilton(AUC0−24h)pooledplasma(ngEq/mL)×24(h) • (D) Lineartrapezoidalmethod:AUC0−24h(ngEqh/mL)=C1h/2×1h+C1h+C4h/2×(4h−1h)+C4h+C8h/2×(8h−4h)+C8h+C24h/2×(24h−8h)

[2] = Safety assessment (CTCAE v4.03 adverse events); type: in vivo, human
Description: The safety of rucaparib was evaluated during the study. The National Cancer Institute Common Terminology Criteria for Adverse Events (CTCAE) grading system (version 4.03) was used to describe the severity of the adverse events (AEs) that occurred. Clinical laboratory, vital sign, 12-lead ECG, and physical examinations were also part of the safety assessment.

[3] = Metabolite identification by LC-MS/MS in plasma, urine and feces; type: in vivo, human; details: F feces, P plasma, U urine
Description: as §1
The LTQ Orbitrap mass spectrometer was equipped with an electrospray ionization interface and operated in positive ionization mode for metabolite profiling and identification. Mass spectra were acquired in full scan (MS) (m/z 150–1500) and data-dependent scan modes. Mass spectrometer parameter settings were: spray voltage, +5.0 kV; capillary temperature, 350 °C; sheath gas, 80 (arbitrary unit); auxiliary gas, 30 (arbitrary unit); activation Q, 0.25; activation time, 30 msec; resolution, 7500; and collision energy, 35 eV.
The structures of the metabolites were identified by LC-MS/MS based on comparisons of mass spectral fragmentation patterns with those produced by the parent compound. Further confirmation of the identities of the metabolites was based on the elemental composition determined from accurate mass analyses using an Orbitrap high-resolution mass spectrometer.
The structures of the major metabolites found in plasma, urine, and feces were also confirmed by comparisons with the synthetic reference standard M324.

[4] = cited from earlier work
[5] = single oral 600 mg, versus fasted

CNCc1ccc(-c2[nH]c3cc(F)cc4c3c2CCNC4=O)cc1 [Rucaparib, rucaparib]
% of dose in pooled fecal homogenate, Patient 01 ([1]; Patient 01): 50.6 % dose | % of dose in pooled fecal homogenate, Patient 05 ([1]; Patient 05): 55.8 % dose | % of dose in pooled fecal homogenate, Patient 06 ([1]; Patient 06): 70.1 % dose | % of dose in pooled fecal homogenate, Patient 08 ([1]; Patient 08): 68.2 % dose | % of dose in pooled fecal homogenate, Patient 09 ([1]; Patient 09): 71.8 % dose | % Peak (of TRA) in feces ([1]; pooled fecal homogenate covering >90% of fecal excretion, N = 6, mean ± SD): 94.9 ± 4.95% | % Dose in feces ([1]; N = 6, mean ± SD): 63.9 ± 8.60% | % Dose in feces ([1]; N = 6, mean ± SD, listed as rucaparib): 63.9% and ≈ 64% | Total treatment-emergent AEs (TEAEs) ([2]; events, in four of six patients, single oral 600 mg): five | Relation, severity and seriousness of TEAEs ([2]; investigator assessment): No TEAE was considered to be related to the study drug by the investigators, had a severity of more than CTCAE grade 2, led to a withdrawal of the patient, or was a serious AE | Patients with TEAE vomiting ([2]; two events in two of six patients): 33.3% | Matrix in which identified [3]: P, U, F | Accumulation at steady state ([4]; 600 mg BID): approximately four-fold | Time of dosing to achieve steady state ([4]; 600 mg BID): 1 week | Dose proportionality of plasma exposure ([4]; 40–500 mg QD and 240–840 mg BID): dose proportional | Median tmax, QD dosing ([4]; 40–500 mg once daily, Study 10): 1.5 to 6.0 h | Median tmax, BID dosing ([4]; 240–840 mg twice daily, Study 10): 1.5 to 4.0 h | Apparent steady-state clearance, BID dosing ([4]; Study 10): 26.2 to 58.6 L/h | Apparent steady-state clearance, QD dosing ([4]; Study 10): 26.7 to 47.5 L/h | Increase of AUC by a high-fat meal [4, 5]: 38% | Increase of Cmax by a high-fat meal [4, 5]: 20% | t1/2 in a previous clinical trial ([4]; single oral dose, dose range 40–500 mg): 11 to 29.8 h
